Measurements taken from patent publication US20230278972A1, “SUBSTITUTED HALOALKYL SULFONANILIDE HERBICIDES” (FMC Corporation, priority 2020, published 2023).

Columns and labels:
Format in all cases: in vivo
[1] = test system: ducksalad (Heteranthera limosa); test: Test B1 flooded paddy test, ducksalad; conditions: 250 g ai/ha, Flood, applied to paddy water, 2-leaf stage, visually evaluated after 10 to 14 days
Text: A dash (-) response means no test result.

corn (Zea mays) [2] = test: Test A1 postemergence, corn; conditions: Postemergence
Summary of the method: (§1)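 Seeds were first planted into a blend of loam soil and sand and given a preemergence directed soil spray. In parallel, pots of the same soil were sown for postemergence application once plants reached 2 to 10 cm and the one- to two-leaf stage. Both used surfactant-containing non-phytotoxic solvent formulations.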

[3] = test system: Oat, Wild (wild oat, Avena fatua); test: Test A1 preemergence, Oat, Wild
Summary of the method: as §1

[4] = test system: horseweed (Erigeron canadensis); test: Test A1 postemergence, horseweed; conditions: Postemergence
Summary of the method: (§2)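 Pre: seeds in loam/sand blend, directed soil spray. Post: potted plants, same soil, 2–10 cm, 1–2 leaf stage. Chemicals in non-phytotoxic solvent + surfactant for both.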

[5] = test system: wheat (Triticum aestivum); test: Test A1 preemergence, wheat
Summary of the method: as §1

corn (Zea mays) [6] = test: Test A1 preemergence, corn
Summary of the method: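 Test compounds were formulated in a non-phytotoxic solvent mixture containing a surfactant. For preemergence, seeds sown in a loam soil–sand blend received a directed soil spray. For postemergence, potted plants in the same soil, 2 to 10 cm tall at the one- to two-leaf stage, were sprayed.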

soybean (Glycine max) [7] = test: Test A1 postemergence, soybean; conditions: Postemergence
Summary of the method: as §2

[8] = test system: wheat (Triticum aestivum); test: Test A1 postemergence, wheat; conditions: Postemergence
Summary of the method: as §2

soybean (Glycine max) [9] = test: Test A1 preemergence, soybean
Summary of the method: as §1

[10] = 31 g ai/ha, 0 to 100 scale (0 no effect, 100 complete control), 10 days
[11] = 31 g ai/ha, 0 to 100 scale (0 no effect, 100 complete control)
[12] = 125 g ai/ha, 0 to 100 scale, 0 no effect, 100 complete control

Row | Compound | Plant response rating, Ducksalad (0 to 100 scale, 0 is no effect, 100 is complete control) [1] | Plant response rating, Corn (corn (Zea mays) [2]; [10]) | Plant response rating, Corn (corn (Zea mays) [2]; 125 g ai/ha, 0 to 100 scale) | Plant response rating, Oat, Wild [3, 11] | Plant response rating, Oat, Wild [3, 12] | Plant response rating, Horseweed [4, 10] | Plant response rating, Horseweed ([4]; 125 g ai/ha, 0 to 100 scale) | Plant response rating, Wheat [5, 11] | Plant response rating, Wheat [5, 12] | Plant response rating, Corn (corn (Zea mays) [6]; [11]) | Plant response rating, Corn (corn (Zea mays) [6]; [12]) | Plant response rating, Soybean (soybean (Glycine max) [7]; [10]) | Plant response rating, Soybean (soybean (Glycine max) [7]; 125 g ai/ha, 0 to 100 scale) | Plant response rating, Wheat [8, 10] | Plant response rating, Wheat ([8]; 125 g ai/ha, 0 to 100 scale) | Plant response rating, Soybean (soybean (Glycine max) [9]; [11]) | Plant response rating, Soybean (soybean (Glycine max) [9]; [12])
1 | Cc1cc(C2CC2)c(NS(=O)(=O)C(F)(F)F)cc1C1=NOC2(CCCC2)C1 [Compound 313] | 0 | 0 | 0 | 0 | 0 | 0 | 0 | 0 | 0 | 0 | 0 | 0 | 20 | 0 | 0 | 0 | 0
2 | COc1cnn(-c2cc(NS(=O)(=O)C(F)(F)F)c(C)cc2C)c(=O)c1OC [Compound 282] | 65 | 0 | 80 | 20 | 30 | 50 | 80 | 0 | 80 | 0 | 50 | 40 | 60 | 60 | 80 | 20 | 20
3 | Cc1c(C(=O)N(C)C)cc(NS(=O)(=O)C(F)(F)F)c(Cl)c1F [Compound 320] | 60 | 0 | 0 | 0 | 0 | 50 | 70 | 10 | 50 | 0 | 30 | 20 | 70 | 0 | 30 | 20 | 40
4 | Cc1cc(C)c(N(C(=O)OC(C)C)S(=O)(=O)C(F)(F)F)cc1C1=NOC2CCCC12 (centres unmarked) [Compound 295] | 0 | 0 | 0 | 0 | 0 | 10 | 50 | 0 | 30 | 0 | 0 | 20 | 50 | 20 | 70 | 0 | 0
5 | CCOC1CC(c2cc(N(COC(=O)C(C)(C)C)S(=O)(=O)C(F)(F)F)c(C)cc2C)=NO1 (centres unmarked) [Compound 339] | 65 | 0 | 30 | 0 | 0 | 100 | 100 | 0 | 0 | 0 | 0 | 0 | 10 | 0 | 40 | 0 | 0
6 | CCOC(=O)N(c1cc(C(=O)N2CCC(C)CC2)c(C)cc1C)S(=O)(=O)C(F)(F)F [Compound 354] | 60 | 0 | 0 | 0 | 0 | 80 | 90 | 0 | 30 | 0 | 0 | 50 | 60 | 20 | 40 | 30 | 70
7 | Cc1c(NS(=O)(=O)C(F)(F)F)cc(C(=O)N(C)C)c(C)c1Cl [Compound 287] | 75 | 0 | 0 | 0 | 10 | 20 | 40 | 0 | 30 | 0 | 0 | 30 | 50 | 0 | 10 | 0 | 30
